The values that follow come from PMC4164441, “The Characterisation of an Alkali-Stable Maltogenic Amylase from Bacillus lehensis G1 and Improved Malto-Oligosaccharide Production by Hydrolysis Suppression” (PLoS ONE, 2014).

The target of the assay is T1, MAG1 (Shouchella lehensis, UniProt X5CPN2).
T1 construct: gene BleG1_0772; full-length ORF, 582 residues, pET21a(+) in E. coli BL21(DE3), Ni-NTA purified, tag kept (His-tag western); 68 kDa SDS-PAGE; monomer/dimer mixture; primers start MNRAGII
The assay can be described thus: DNS reducing sugar assay, Lineweaver-Burk plot. It is filed as biochemical. The settings on record: 50 mM potassium phosphate pH 7.0, 40°C; hydrolysis; read-out: Km (mg ml^-1) (converted). The source says: DNS reducing sugar assay, Lineweaver-Burk plot on MAG1

T1 sequence (X5CPN2 entry or part of it): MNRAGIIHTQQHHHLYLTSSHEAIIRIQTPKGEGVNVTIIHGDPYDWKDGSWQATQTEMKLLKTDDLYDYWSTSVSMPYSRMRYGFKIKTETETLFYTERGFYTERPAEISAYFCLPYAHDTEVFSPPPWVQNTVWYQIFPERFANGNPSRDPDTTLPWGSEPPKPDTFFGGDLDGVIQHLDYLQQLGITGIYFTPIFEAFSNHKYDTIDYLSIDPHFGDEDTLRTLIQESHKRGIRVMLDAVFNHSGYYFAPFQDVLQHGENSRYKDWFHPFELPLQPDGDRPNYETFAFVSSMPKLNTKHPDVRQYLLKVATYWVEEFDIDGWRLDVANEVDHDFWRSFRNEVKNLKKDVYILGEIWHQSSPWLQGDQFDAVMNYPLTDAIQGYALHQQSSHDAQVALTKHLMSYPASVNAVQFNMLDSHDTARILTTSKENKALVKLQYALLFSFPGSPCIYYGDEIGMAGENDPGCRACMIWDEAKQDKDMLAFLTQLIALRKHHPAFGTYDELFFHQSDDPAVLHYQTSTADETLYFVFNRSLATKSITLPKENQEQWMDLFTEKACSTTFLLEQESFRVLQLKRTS

A word on the Km: it is the concentration of substrate that gives half-maximal velocity. Turning to `OC[C@H]1O[C@@H]2O[C@H]3[C@H](O)[C@@H](O)[C@@H](O[C@H]4[C@H](O)[C@@H](O)[C@@H](O[C@H]5[C@H](O)[C@@H](O)[C@@H](O[C@H]6[C@H](O)[C@@H](O)[C@@H](O[C@H]7[C@H](O)[C@@H](O)[C@@H](O[C@H]8[C@H](O)[C@@H](O)[C@@H](O[C@H]1[C@H](O)[C@H]2O)O[C@@H]8CO)O[C@@H]7CO)O[C@@H]6CO)O[C@@H]5CO)O[C@@H]4CO)O[C@@H]3CO` [β-CD], the Km is 1120 µM.
